Assay results: ChEMBL document CHEMBL3045516, “Field study of the relative susceptibility of eleven potato (Solanum tuberosum L.) varieties and the efficacy of two fungicides against Rhizoctonia solani attack” (2010)

Legend:
Type in all cases: functional
[1] = test system: Rhizoctonia solani; experiment: Fungicidal activity against Rhizoctonia solani assessed as level-3 black scurf infected potato Nicola progeny tubers using 25% active ingredient containing compound treated potato seeds under field trial conditions (reference value: 22.4%)
[2] = test system: Rhizoctonia solani; experiment: Fungicidal activity against Rhizoctonia solani assessed as level-2 black scurf infected potato Nicola progeny tubers using 25% active ingredient containing compound treated potato seeds under field trial conditions (reference value: 17.9%)
[3] = test system: Rhizoctonia solani; experiment: Fungicidal activity against Rhizoctonia solani assessed as level-1 black scurf infected potato Nicola progeny tubers using 25% active ingredient containing compound treated potato seeds under field trial conditions (reference value: 0.0%)
[4] = test system: Rhizoctonia solani; experiment: Fungicidal activity against Rhizoctonia solani assessed as level-4 black scurf infected potato Nicola progeny tubers using 25% active ingredient containing compound treated potato seeds under field trial conditions (reference value: 59.7%)
[5] = test system: Rhizoctonia solani; experiment: Fungicidal activity against Rhizoctonia solani assessed as level-3 black scurf infected potato Nicola progeny tubers using in-furrow application of 25% active ingredient containing compound under field trial conditions (reference value: 22.4%)
[6] = test system: Rhizoctonia solani; experiment: Fungicidal activity against Rhizoctonia solani assessed as level-3 black scurf infected potato Nicola progeny tubers using 25% active ingredient containing compound treated potato seeds and in-furrow compound application under field trial conditions (reference value: 22.4%)
[7] = test system: Rhizoctonia solani; experiment: Fungicidal activity against Rhizoctonia solani assessed as level-2 black scurf infected potato Nicola progeny tubers using 25% active ingredient containing compound treated potato seeds and in-furrow compound application under field trial conditions (reference value: 17.9%)
[8] = test system: Rhizoctonia solani; experiment: Fungicidal activity against Rhizoctonia solani assessed as level-2 black scurf infected potato Nicola progeny tubers using in-furrow application of 25% active ingredient containing compound under field trial conditions (reference value: 17.9%)
[9] = test system: Rhizoctonia solani; experiment: Fungicidal activity against Rhizoctonia solani assessed as level-1 black scurf infected potato Nicola progeny tubers using in-furrow application of 25% active ingredient containing compound under field trial conditions (reference value: 0.0%)
[10] = test system: Rhizoctonia solani; experiment: Fungicidal activity against Rhizoctonia solani assessed as level-1 black scurf infected potato Nicola progeny tubers using 25% active ingredient containing compound treated potato seeds and in-furrow compound application under field trial conditions (reference value: 0.0%)
[11] = test system: Rhizoctonia solani; experiment: Fungicidal activity against Rhizoctonia solani assessed as level-4 black scurf infected potato Nicola progeny tubers using in-furrow application of 25% active ingredient containing compound under field trial conditions (reference value: 59.7%)
[12] = test system: Rhizoctonia solani; experiment: Fungicidal activity against Rhizoctonia solani assessed as level-4 black scurf infected potato Nicola progeny tubers using 25% active ingredient containing compound treated potato seeds and in-furrow compound application under field trial conditions (reference value: 59.7%)

Row | SMILES | Activity [1] | Activity [2] | Activity [3] | Activity [4] | Activity [5] | Activity [6] | Activity [7] | Activity [8] | Activity [9] | Activity [10] | Activity [11] | Activity [12]
1 | O=C(Nc1ccccc1)N(Cc1ccc(Cl)cc1)C1CCCC1 [PENCYCURON] | 19.7% | 70.8% | 8.1% | 1.4% |  |  |  |  |  |  |  | 
2 | CO/C=C(\C(=O)OC)c1ccccc1Oc1cc(Oc2ccccc2C#N)ncn1 [Azoxystrobin] | 0.01% | 90% | 0.01% | 10% | 69% | 0.01% | 83.3% | 31% | 0.01% | 16.7% | 0.01% | 0.01%
